The test system of assay [1] is primary patient-derived PDX204 pancreatic cancer cells. The assay can be described thus: PDX204 organoid assay. It is filed as cell-based, human. Here is the method: Moreover, the anti-cancer effect of JTE-151 was determined in an organoid assay using pancreatic cancer cells derived from mice bearing primary patient-derived xenografts.
Assay [2] concerns primary patient-derived xenografts. Nature of the assay: compilation of primary patient-derived xenografts, JTE-151. Type of assay: in vivo, human. Particulars: JTE-151 vs vehicle, compilation (FIG. 78). An excerpt:
Finally, the impact of JTE-151 was examined in vivo on mice bearing primary patient-derived pancreatic cancer xenografts (FIGS. 70-78). […] FIGS. 70-72 show 3 rounds of treatment in an experiment using mice bearing PDX1356 xenographs. The horizontal axis of the first panel in each of FIGS. 70-72 represents days of treatment, and the vertical axis represents tumor volume. The horizontal axis of each of the remaining panels represents the target (vehicle vs. JTE-151 mouse), and the vertical axis represents the specified measurement. JTE-151 was given at the regimen as specified in the figures. For example, in the first round (FIG. 70), JTE-151 was given at 90 mg/kg body weight once per day for the first 25 days, then twice per day from day 26 though day 40.
Two other primary patient-derived xenografts, PDX1535 (FIGS. 74 and 75) and PDX1424 (FIGS. 76 and 77), were tested using JTE-151 at 90 mg/kg once per day. […] Considering the reduced tumor mass and cell numbers, the absence of a significant change in tumor volume may be due to necrotic cells that remained for a while post drug treatment.

A further assay deals with IL-17. Nature of the assay: circulating IL-17 level in tumor-bearing KP^f/fC mice. It is filed as in vivo, mouse. Particulars: 120 mg/kg JTE-151 regimen, responding mice (FIGS. 59-60). As for the experimental part:
Similarly, the anti-cancer effect of JTE-151 was tested on tumor-bearing KP^f/fC mice in vivo at a higher dose of 120 mg/kg (FIGS. 59-61 showing three individual experiments). For each experiment, one mouse was given vehicle treatment, and another mouse was given the JTE-151 regimen as specified in the figures. For example, in FIG. 59, the JTE-151 mouse received 120 mg/kg body weight of JTE-151 for 2 weeks and then 90 mg/kg JTE-151 for 1 week. In the first 1.5 weeks, JTE-151 was given once daily, and in the second 1.5 weeks, JTE-151 was given twice daily. […] In each of FIGS. 59-61, the horizontal axis of each graph represents the target (vehicle vs. JTE-151 mouse), and the vertical axis represents the specified measurement.

The subject of a further assay is KP^f/fC cells. Nature of the assay: pancreatic tumorsphere formation assay. It is filed as cell-based, mouse. Particulars: SR2211 vs vehicle. As for the experimental part:
(§1) Pancreatic tumorsphere formation assays were performed and modified from (Rovira et al., 2010). Briefly, low-passage (<6 passages) WT or REM2-KP^f/fC cell lines were infected with lentiviral particles containing shRNAs; positively infected (red) cells were sorted 72 hours after transduction. 100-300 infected cells were suspended in tumorsphere media: 100 μl DMEM F-12 (Gibco, Life Technologies) containing 1× B-27 supplement (Gibco, Life Technologies), 3% FBS, 100 μM B-mercaptoethanol (Gibco, Life Technologies), 1× non-essential amino acids (Gibco, Life Technologies), 1× N2 supplement (Gibco, Life Technologies), 20 ng/ml EGF (Gibco, Life Technologies), 20 ng/ml bFGF2 (Gibco, Life Technologies), and 10 ng/ml ESGRO mLIF (Thermo Fisher). Cells in media were plated in 96-well ultra-low adhesion culture plates (Costar) and incubated at 37° C. for 7 days. KP^f/fC in vitro tumorsphere formation studies were conducted at a minimum of n=3 independent wells per cell line across two independent shRNA of n=3 wells; however, the majority of these experiments were additionally completed in >1 independently-derived cell lines n=3, at n=3 wells per shRNA.

Another assay deals with pancreatic cancer cell. Nature of the assay: in vitro sphere formation, antagonists of Table 2. Type of assay: cell-based, mouse. Particulars: extent of growth suppression relative to control. Here is the method: as §1
Assay [3] has as its system LuCA KP lung cancer cells. Nature of the assay: lung cancer tumor sphere formation. Type of assay: cell-based. The settings on record: 0.3 μM, 0.6 μM, 1 μM, and 1.2 μM; relative to control. From the text: Then the number of formed tumor spheres were counted and quantified as relative to control.
Another assay has as its system Hmga2. The assay can be described thus: target engagement by Hmga2 immunofluorescence in KP^f/fC tumors. Type of assay: in vivo, mouse. Particulars: mid-point of the treatment regimen. As for the experimental part:
FIGS. 20A-20D show target engagement following RORγ inhibition in vivo, related to FIGS. 5A-5X. FIGS. 20A and 20B: Tumor-bearing KP^f/fC mice 9.5 weeks of age were treated with vehicle or SR2211 for two weeks (midpoint), after which tumors were isolated, fixed, and analyzed for target engagement of Hmga2 in epithelial cells by immunofluorescence. Quantification of Hmga2-positive epithelial cells in vehicle or SR2211 treated tumors (FIG. 20A) representative images (FIG. 20B). FIGS. 20C and 20D: Tumor-bearing KP^f/fC mice were treated from 8 weeks of age to endpoint with either vehicle or SR2211. Quantification of Hmga2-positive epithelial cells in vehicle or SR2211 treated tumors (FIG. 20C), representative images (FIG. 20D). Four frames were analyzed per mouse, n=2-4 mice per condition, Hmga2 (red), Keratin (green). Data represented as mean+/−S.E.M. *p<0.05, **p<0.01, ***p<0.001 by Student's t-test or One-way ANOVA. Grubb's test (p=0.1), was used to remove an outlier from the midpoint SR2211 treated group.
Pancreatic cancer tissue from KP^f/fC mice was fixed in Z-fix (Anatech Ltd, Fisher Scientific) and paraffin embedded at the UCSD Histology and Immunohistochemistry Core at The Sanford Consortium for Regenerative Medicine according to standard protocols. 5 μm sections were obtained and deparaffinized in xylene. […]

Assay [4] has as its system primary patient derived xenografts. Nature of the assay: primary patient derived xenografts, SR2211. Particulars: human. As for the experimental part: Subcutaneous tumor dimensions were measured with calipers 1-2× weekly.
(In general: In xenograft studies the graft and the host belong to different species.)

As for `Cc1ccc(NC(=O)C[C@H](CCC(=O)O)c2noc([C@H]3C[C@@H](CC(C)(C)C)C3)c2C2CC2)c(Cl)c1` [JTE-151, (4S)-6-[(2-chloro-4-methylphenyl)amino]-4-{4-cyclopropyl-5-[cis-3-(2,2-dimethylpropyl)cyclobutyl]isoxazol-3-yl}-6-oxohexanoic acid], the organoid growth entry in assay [1] (3 μM JTE-151 alone) was “inhibited”. Moreover, the organoid growth result in assay [1] (3 μM JTE-151 in combination with 0.05 nM gemcitabine) was “inhibited”. In assay [2], the “EpCam+ tumor epithelial cells” value is on record as “significantly reduced”, the “EpCam+/CD133+ tumor stem cells” value is reported as “significantly reduced”, the cell number entry is recorded as “significantly reduced” and the tumor mass result is listed as “significantly reduced”. The “circulating IL-17 levels” value with IL-17 is on record as “decrease”.
Regarding `OC(c1ccc(-c2ccc(CN3CCN(Cc4ccncc4)CC3)cc2)c(F)c1)(C(F)(F)F)C(F)(F)F` [SR2211], in the assay with KP^f/fC cells, the sphere formation entry is recorded as “decreased”. The “in vitro sphere formation” value with pancreatic cancer cell is recorded as “✓✓✓✓ (dose response observed; growth suppressed by 8-fold or more relative to control)”. For the same compound, in assay [3], the tumor sphere formation result is “significantly reduced”. Besides, in the assay on Hmga2, the “Hmga2 in pancreatic epithelial cells” value is on record as “downregulated”. Further, the “tumor growth in vivo” value in assay [4] is recorded as “marked reduction”.
